Laboratory results: paper PMC7377239, “Cardiovascular Effects of Polychlorinated Biphenyls and Their Major Metabolites” (Environmental Health Perspectives, 2020)

Experiments:
ryanodine receptor (RyR) = tested on: ryanodine receptor (RyR); set-up: method as in Wong et al. 2001, 1997; Wong and Pessah 1997; conditions: mechanism involving the ryanodine receptor; ref Wong et al. 2001, 1997; Wong and Pessah 1997; cited from earlier work
[1] = tested on: iCell cardiomyocytes (human iPSC-derived cardiomyocytes); test: Intracellular Ca2+ flux / beating parameters in iCell cardiomyocytes (FLIPR tetra), 90 min or 24 h; assay type: cell-based; conditions: iPSC-CMs, concentration-response 0.01-100 μM, 90 min and 24 h
How it was run: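 PODs were defined as the concentration crossing one SD of the vehicle-control means (0.5% DMSO) on four-parameter logistic fits of Ca2+ trace metrics (peak height, frequency, peak-spacing CV, decay/rise ratio). Traces came from 100 s, 8 Hz FLIPR reads at 37 °C on calcium-dye-loaded iCell cardiomyocytes. Before reading, cells were treated for 90 min or 24 h from 5× chemical plates spanning 0.05–500 µM, in triplicate.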

zebrafish = tested on: zebrafish; set-up: method as in Li et al. 2014; Teixidó et al. 2019; conditions: ref Li et al. 2014; Teixidó et al. 2019; cited from earlier work
[2] = tested on: porcine pulmonary artery–derived EC; set-up: method as in Hennig et al. 2002, 2005; Toborek et al. 1995; conditions: ref Hennig et al. 2002, 2005, Toborek et al. 1995; cited from earlier work

For `Clc1ccc(Cl)c(-c2c(Cl)ccc(Cl)c2Cl)c1` [PCB 95, 2,2′,3,5′,6-pentachlorobiphenyl], the cellular calcium release (ryanodine receptor (RyR)) is listed as “sensitizing cellular calcium release”.

For `Clc1ccc(-c2cc(Cl)c(Cl)c(Cl)c2)cc1Cl` [PCB 126, 3,3′,4,4′,5-pentachlorobiphenyl], the “inotropic effect (cell beating parameters)” value [1] is listed as “positive inotropic effects”, the “cardiovascular toxicity in zebrafish” value (zebrafish) is listed as “pericardial edema, cardiac looping defects, and circulatory failure” and the EC toxicity [2] is listed as “potent inducers of EC toxicity”.
